In the supplement of paper PMC10307832:

Each cell line was assayed with Cn1c(=O)n(-c2ccc(C(C)(C)C#N)cc2)c2c3cc(-c4cnc5ccccc5c4)ccc3ncc21 [Dactolisib] (assay: relative viability (nuclei count vs DMSO), 5 days (fraction); higher = more cells survive). Details: 0.002 µM.
How it was run: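 A plate was accepted only when its control CV was below 25% and the cells had doubled at least once. Viability is defined from nuclear counts as treated wells divided by vehicle wells, with the median taken across plates. That median covers lung cancer cell lines grown in 1536-well plates, dosed by pinning at five √10-spaced library-drug concentrations, and counted in MetaXpress from 4× Hoechst images after 5 days.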
With NCI-H2085 the relative viability was 1.02.
Calu-6 was tested, and the relative viability was 1.06.
For HCC-366, the relative viability was 0.975.
With NCI-H1666 the relative viability was 1.09.
Cell Line NCI-H596 has a relative viability of 1.09.
For LK-2, the relative viability was 0.905.
With NCI-H2087 the relative viability was 1.38.
Cell Line SK-MES-1 has a relative viability of 1.1.
H3255 was tested, and the relative viability was 1.09.
COR-L23 gave a relative viability of 1.15.
COR-L 105 gave a relative viability of 0.959.
IA-LM was tested, and the relative viability was 1.
LOU-NH91 gave a relative viability of 0.994.
NCI-H2170 was tested, and the relative viability was 1.02.
NCI-H2405 was tested, and the relative viability was 1.01.
In the case of HOP-62, the relative viability is reported as 1.05.
HCC-44 was tested, and the relative viability was 0.979.
With A549 the relative viability was 0.995.
With LU99A the relative viability was 0.93.
BEN gave a relative viability of 1.02.
Work on HARA yielded a relative viability of 1.08.
Cell Line HCC-78 has a relative viability of 1.06.
Cell Line NCI-H322M has a relative viability of 1.04.
LCLC-97TM1 showed a relative viability of 1.01.
NCI-H2009 gave a relative viability of 1.05.
A-427 gave a relative viability of 1.1.
Cell Line NCI-H661 has a relative viability of 1.08.
In the case of NCI-H1734, the relative viability is reported as 1.04.
NCI-H460 was tested, and the relative viability was 1.04.
NCI-H2347 gave a relative viability of 1.27.
In the case of SW 1573, the relative viability is reported as 1.07.

Same assay, conditions: 0.006325 µM
In the case of NCI-H2085, the relative viability is reported as 0.986.
Calu-6 was tested, and the relative viability was 0.989.
HCC-366 gave a relative viability of 1.04.
Work on NCI-H1666 yielded a relative viability of 0.926.
NCI-H596 showed a relative viability of 0.91.
LK-2 was tested, and the relative viability was 0.877.
Cell Line NCI-H2087 has a relative viability of 1.22.
SK-MES-1 was tested, and the relative viability was 0.983.
For H3255, the relative viability was 0.908.
COR-L23 was tested, and the relative viability was 1.06.
COR-L 105 was tested, and the relative viability was 0.898.
Work on IA-LM yielded a relative viability of 0.837.
LOU-NH91 showed a relative viability of 0.997.
For NCI-H2170, the relative viability was 0.971.
For NCI-H2405, the relative viability was 0.993.
For HOP-62, the relative viability was 1.03.
In the case of HCC-44, the relative viability is reported as 1.01.
A549 was tested, and the relative viability was 0.871.
LU99A was tested, and the relative viability was 0.904.
BEN was tested, and the relative viability was 0.883.
Work on HARA yielded a relative viability of 0.982.
In the case of HCC-78, the relative viability is reported as 0.909.
Work on NCI-H322M yielded a relative viability of 0.931.
Work on LCLC-97TM1 yielded a relative viability of 1.02.
With NCI-H2009 the relative viability was 0.983.
A-427 gave a relative viability of 0.908.
Work on NCI-H661 yielded a relative viability of 1.03.
Cell Line NCI-H1734 has a relative viability of 0.887.
NCI-H460 showed a relative viability of 0.989.
In the case of NCI-H2347, the relative viability is reported as 0.971.
Work on SW 1573 yielded a relative viability of 0.838.

Same assay, conditions: 0.02 µM
NCI-H2085 showed a relative viability of 0.96.
In the case of Calu-6, the relative viability is reported as 1.05.
For HCC-366, the relative viability was 1.05.
Cell Line NCI-H1666 has a relative viability of 0.957.
In the case of NCI-H596, the relative viability is reported as 0.886.
In the case of LK-2, the relative viability is reported as 0.846.
For NCI-H2087, the relative viability was 1.07.
Cell Line SK-MES-1 has a relative viability of 0.914.
H3255 was tested, and the relative viability was 0.91.
Work on COR-L23 yielded a relative viability of 0.911.
In the case of COR-L 105, the relative viability is reported as 0.781.
For IA-LM, the relative viability was 0.701.
In the case of LOU-NH91, the relative viability is reported as 0.885.
NCI-H2170 was tested, and the relative viability was 0.96.
For NCI-H2405, the relative viability was 0.97.
With HOP-62 the relative viability was 1.02.
With HCC-44 the relative viability was 1.03.
For A549, the relative viability was 0.729.
Work on LU99A yielded a relative viability of 0.766.
Cell Line BEN has a relative viability of 0.81.
Work on HARA yielded a relative viability of 0.928.
Work on HCC-78 yielded a relative viability of 0.829.
Cell Line NCI-H322M has a relative viability of 0.734.
In the case of LCLC-97TM1, the relative viability is reported as 0.9.
NCI-H2009 was tested, and the relative viability was 1.04.
In the case of A-427, the relative viability is reported as 0.936.
NCI-H661 showed a relative viability of 0.953.
For NCI-H1734, the relative viability was 0.864.
NCI-H460 gave a relative viability of 0.984.
Cell Line NCI-H2347 has a relative viability of 0.958.
Work on SW 1573 yielded a relative viability of 0.696.

Same assay, conditions: 0.06325 µM
With NCI-H2085 the relative viability was 0.553.
For Calu-6, the relative viability was 0.622.
Work on HCC-366 yielded a relative viability of 0.734.
NCI-H1666 showed a relative viability of 0.746.
Work on NCI-H596 yielded a relative viability of 0.558.
LK-2 showed a relative viability of 0.433.
Work on NCI-H2087 yielded a relative viability of 0.657.
With SK-MES-1 the relative viability was 0.542.
With H3255 the relative viability was 0.784.
COR-L23 showed a relative viability of 0.27.
Cell Line COR-L 105 has a relative viability of 0.363.
For IA-LM, the relative viability was 0.273.
With LOU-NH91 the relative viability was 0.613.
In the case of NCI-H2170, the relative viability is reported as 0.648.
In the case of NCI-H2405, the relative viability is reported as 0.607.
Work on HOP-62 yielded a relative viability of 0.595.
HCC-44 was tested, and the relative viability was 0.688.
Work on A549 yielded a relative viability of 0.225.
With LU99A the relative viability was 0.429.
BEN gave a relative viability of 0.536.
For HARA, the relative viability was 0.601.
HCC-78 gave a relative viability of 0.657.
Cell Line NCI-H322M has a relative viability of 0.702.
LCLC-97TM1 showed a relative viability of 0.802.
Cell Line NCI-H2009 has a relative viability of 0.598.
Cell Line A-427 has a relative viability of 0.572.
In the case of NCI-H661, the relative viability is reported as 0.482.
NCI-H1734 gave a relative viability of 0.384.
NCI-H460 showed a relative viability of 0.541.
NCI-H2347 gave a relative viability of 0.771.
Cell Line SW 1573 has a relative viability of 0.414.

Same assay, conditions: 0.2 µM
Work on NCI-H2085 yielded a relative viability of 0.387.
Calu-6 showed a relative viability of 0.473.
For HCC-366, the relative viability was 0.569.
For NCI-H1666, the relative viability was 0.639.
With NCI-H596 the relative viability was 0.409.
Work on LK-2 yielded a relative viability of 0.253.
NCI-H2087 showed a relative viability of 0.437.
With SK-MES-1 the relative viability was 0.339.
H3255 gave a relative viability of 0.627.
In the case of COR-L23, the relative viability is reported as 0.249.
Cell Line COR-L 105 has a relative viability of 0.425.
IA-LM showed a relative viability of 0.129.
In the case of LOU-NH91, the relative viability is reported as 0.623.
NCI-H2170 showed a relative viability of 0.447.
NCI-H2405 showed a relative viability of 0.447.
In the case of HOP-62, the relative viability is reported as 0.647.
Work on HCC-44 yielded a relative viability of 0.929.
Work on A549 yielded a relative viability of 0.182.
For LU99A, the relative viability was 0.31.
Work on BEN yielded a relative viability of 0.366.
HARA showed a relative viability of 0.369.
HCC-78 was tested, and the relative viability was 0.387.
Cell Line NCI-H322M has a relative viability of 0.579.
Work on LCLC-97TM1 yielded a relative viability of 0.388.
For NCI-H2009, the relative viability was 0.366.
A-427 gave a relative viability of 0.586.
For NCI-H661, the relative viability was 0.432.
Cell Line NCI-H1734 has a relative viability of 0.313.
Cell Line NCI-H460 has a relative viability of 0.488.
Work on NCI-H2347 yielded a relative viability of 0.517.
SW 1573 gave a relative viability of 0.284.
